Data taken from patent US7605269B2, “Thiophene derivatives as Sphingosine-1-phosphate-1 receptor agonists” (Actelion Pharmaceuticals Ltd., priority 2005, dated 2009).

Each compound was assayed on circulating lymphocytes (assay: Assessment of in vivo efficacy: circulating lymphocytes after oral administration). Conditions: 6 h after oral administration of 10 mg/kg, normotensive male Wistar rats, compared to vehicle-treated group.
Set-up: species or system rat
Protocol: The efficacy of the compounds of Formula (I) is assessed by measuring the circulating lymphocytes after oral administration of 3 to 30 mg/kg of a compound of Formula (I) to normotensive male Wistar rats. The animals are housed in climate-controlled conditions with a 12 h-light/dark cycle, and have free access to normal rat chow and drinking water. Blood is collected before and 3, 6 and 24 h after drug administration. Full blood is subjected to hematology using Advia Hematology system (Bayer Diagnostics, Zurich, Switzerland).
All data are presented as mean ±SEM. Statistical analyses are performed by analysis of variance (ANOVA) using Statistica (StatSoft) and the Student-Newman-Keuls procedure for multiple comparisons. The null hypothesis is rejected when p<0.05.

SMILES | Lymphocyte counts [%]
Cc1cc(-c2noc(-c3sc(C)c4c3C[C@@H]3[C@H]4C3(C)C)n2)cc(C)c1OCC(CO)CO [Example 19, 2-{2,6-dimethyl-4-[5-((1aS,5aR)-1,1,2-trimethyl-1,1a,5,5a-tetrahydro-3-thia-cyclopropa[a]pentalen-4-yl)-[1,2,4]oxadiazol-3-yl]-phenoxymethyl}-propane-1,3-diol] | −56

Each compound was assayed against recombinant human S1P1 receptor (Homo sapiens, UniProt P21453) (assay: GTPγS assay to determine EC50 values). Conditions: 35S-GTPγS binding, membrane preparations of CHO cells expressing recombinant human S1P1 receptor.
Type: biochemical
Protocol: The pH is 7.4. Test compounds are dissolved and diluted in 100% DMSO and pre-incubated at room temperature for 30 min in 150 μl of the above assay buffer, in the absence of ^35S-GTPγS. After addition of 50 μl of ^35S-GTPγS, the assay is incubated for 1 h at room temperature. […] Membrane-bound ^35S-GTPγS is measured with a TopCount from Packard Biosciences.
Specific binding is determined by subtracting non-specific binding from maximal binding. Maximal binding is the amount of cpm bound to the Multiscreen plate in the presence of 10 μM of S1P. Non-specific binding is the amount of binding in the absence of an agonist in the assay.

Chain of recombinant human S1P1 receptor (P21453 whole entry): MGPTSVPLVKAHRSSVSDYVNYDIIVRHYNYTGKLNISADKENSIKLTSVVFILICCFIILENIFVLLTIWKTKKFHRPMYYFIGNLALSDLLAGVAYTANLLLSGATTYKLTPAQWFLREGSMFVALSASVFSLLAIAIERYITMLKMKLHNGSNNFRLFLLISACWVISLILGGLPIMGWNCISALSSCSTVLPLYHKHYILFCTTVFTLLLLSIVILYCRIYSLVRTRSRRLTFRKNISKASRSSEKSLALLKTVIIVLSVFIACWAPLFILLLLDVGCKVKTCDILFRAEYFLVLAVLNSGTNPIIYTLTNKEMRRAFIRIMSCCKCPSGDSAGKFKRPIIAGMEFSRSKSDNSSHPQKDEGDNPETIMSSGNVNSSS

SMILES | EC50 [nM]
Cc1sc(-c2nc(-c3ccc(OC[C@H](O)CO)cc3)no2)c2c1[C@H]1[C@@H](C2)C1(C)C [Example 6, (2R)-3-{4-[5-((1aS,5aR)-1,1,2-trimethyl-1,1a,5,5a-tetrahydro-3-thia-cyclopropa[a]pentalen-4-yl)-[1,2,4]oxadiazol-3-yl]-phenoxy}-propane-1,2-diol] | 12
Cc1cc(-c2noc(-c3sc(C)c4c3C[C@@H]3[C@H]4C3(C)C)n2)cc(C)c1OCC(CO)CO [Example 19, 2-{2,6-dimethyl-4-[5-((1aS,5aR)-1,1,2-trimethyl-1,1a,5,5a-tetrahydro-3-thia-cyclopropa[a]pentalen-4-yl)-[1,2,4]oxadiazol-3-yl]-phenoxymethyl}-propane-1,3-diol] | 1.2
Cc1cc(-c2noc(-c3sc(C)c4c3C[C@@H]3[C@H]4C3(C)C)n2)cc(C)c1OCCCN [Example 24, 3-{2,6-dimethyl-4-[5-((1aS,5aR)-1,1,2-trimethyl-1,1a,5,5a-tetrahydro-3-thia-cyclopropa[a]pentalen-4-yl)-[1,2,4]oxadiazol-3-yl]-phenoxy}-propylamine] | 4.8
Cc1cc(-c2noc(-c3sc(C)c4c3C[C@@H]3[C@H]4C3(C)C)n2)cc(C)c1OCCCNCCO [Example 27, 2-(3-{2,6-dimethyl-4-[5-((1aS,5aR)-1,1,2-trimethyl-1,1a,5,5a-tetrahydro-3-thia-cyclopropa[a]pentalen-4-yl)-[1,2,4]oxadiazol-3-yl]-phenoxy}-propylamino)-ethanol] | 6.1
Cc1cc(-c2noc(-c3sc(C)c4c3C[C@@H]3[C@H]4C3(C)C)n2)cc(C)c1OCCCN1CCCC1C(=O)O (stereo partly drawn) [Example 32, 1-(3-{2,6-dimethyl-4-[5-((1aS,5aR)-1,1,2-trimethyl-1,1a,5,5a-tetrahydro-3-thia-cyclopropa[a]pentalen-4-yl)-[1,2,4]oxadiazol-3-yl]-phenoxy}-propyl)-pyrrolidine-2-carboxylic acid] | 8.8
Cc1cc(-c2nc(-c3sc(C)c4c3C[C@@H]3[C@H]4C3(C)C)no2)cc(C)c1O [Example 38, 2,6-dimethyl-4-[3-((1aS,5aR)-1,1,2-trimethyl-1,1a,5,5a-tetrahydro-3-thia-cyclopropa[a]pentalen-4-yl)-[1,2,4]oxadiazol-5-yl]-phenol] | 1.6
Cc1cc(-c2nc(-c3sc(C)c4c3C[C@@H]3[C@H]4C3(C)C)no2)cc(C)c1OCCO [Example 39, 2-{2,6-dimethyl-4-[3-((1aS,5aR)-1,1,2-trimethyl-1,1a,5,5a-tetrahydro-3-thia-cyclopropa[a]pentalen-4-yl)-[1,2,4]oxadiazol-5-yl]-phenoxy}-ethanol] | 1.1
Cc1cc(-c2nc(-c3sc(C)c4c3C[C@@H]3[C@H]4C3(C)C)no2)cc(C)c1OCC(CO)CO [Example 43, 2-{2,6-dimethyl-4-[3-((1aS,5aR)-1,1,2-trimethyl-1,1a,5,5a-tetrahydro-3-thia-cyclopropa[a]pentalen-4-yl)-[1,2,4]oxadiazol-5-yl]-phenoxymethyl}-propane-1,3-diol] | 1.4
